Data set [1] deals with Candida albicans TIMM 1623. Briefly: Murine Candida infection model (subcutaneous administration). The settings on record: cyclophosphamide-compromised male mice; 0.1 mg/kg subcutaneously, 4 times; observed 21 days after infection. Format: in vivo. On the procedure:
(§1) As a Test Compound, the compound of Example 3 was used.
Male mice (4 week-old, 5 mice/group) were administered intraperitoneally with 200 mg/kg of cyclophosphamide 4 days before infection and 100 mg/kg on the following day after the infection to obtain transient compromised condition. Candida albicans TIMM 1623 cultured on SDA at 35° C. was suspended in a sterile physiological saline solution to prepare a suspension at 1.5×10^5 cells/mL. Each 0.2 mL of the solution was inoculated into the tail vein of each mouse to induce infection (about 3×10^4 CFU/mouse). The Test Compound was dissolved in a small amount of 0.1 mol/L hydrochloric acid, and the solution was diluted with a sterile physiological saline solution to obtain a 0.01 mg/mL solution. The solution was administered subcutaneously at the dose of 10 mL/kg body weight of mouse (0.1 mg/kg body weight). The administrations were conducted once 2 hours after the infection and once daily for the following consecutive 3 days, totaling 4 times. To a group receiving no Test Compound, an equal amount of a sterile physiological saline solution was administered. Viability of the mice was observed and recorded for 21 days after infection.

The test system of data set [2] is Aspergillus fumigatus IFM46895. Description: Murine Aspergillus infection model (oral administration). Format: in vivo. As to conditions: cyclophosphamide-compromised male mice; 10 mg/kg orally, 7 times; observed 21 days after infection. On the procedure:
As Test Compounds, the compound of Example 3 and Comparative Compound 1 were used.
(§2) Spores of Aspergillus fumigatus IFM46895 were cultured on a potato dextrose agar medium at 30° C. for a week. The recovered spores were suspended in a sterile physiological saline solution containing 0.05% Tween 80, which was then diluted to prepare an inoculum solution.
(§3) Male mice (4 week-old, 5 mice/group) were administered intraperitoneally with 200 mg/kg of cyclophosphamide 4 days before infection and 100 mg/kg on the following day after the infection to obtain transient compromised condition. Each 0.2 mL of the inoculum solution was inoculated into the tail vein of each mouse to induce infection (about 1×10^5 CFU/mouse). The Test Compounds were dissolved in a small amount of 0.1 mol/L hydrochloric acid, and the solution was diluted with a sterile distilled water to obtain a 1 mg/mL solution. The solution was administered orally at the dose of 10 mL/kg body weight of mouse (10 mg/kg body weight). The administrations were conducted once 2 hours after the infection and once daily for the following 6 days, totaling 7 times. To a group receiving no Test Compounds, an equal amount of a sterile physiological saline solution was administered. Viability of the mice was observed and recorded for 21 days after infection.

For data set [3], the system named is Aspergillus fumigatus IFM46895. Description: Murine Aspergillus infection model (subcutaneous administration). Format: in vivo. As to conditions: cyclophosphamide-compromised male mice; 0.3 mg/kg subcutaneously, 7 times; observed 21 days after infection. On the procedure:
as §1, §2
as §3, with “Test Compound was” for “Test Compounds were”, “sterile physiological saline solution” for “sterile distilled water”, “a 0.03” for “a 1”, “administered subcutaneously” for “administered orally”, “mouse (0.3” for “mouse (10”, “Test Compound,” for “Test Compounds,”

The nature of data set [4]: Acute toxicity study in mice (oral administration). The settings on record: male mice, 1000 mg/kg single oral dose. Format: in vivo. On the procedure:
A 100 mg/mL suspension of the compound of Example 3 was prepared with 0.1 mol/L hydrochloric acid. The Test Compound solution was orally administered to male mice (6 week-old, 2 mice/group) at 10 mL/kg (1000 mg/kg body weight) and the mice were observed until day 2 after administration.

Data set [5] can be described thus: Acute toxicity study in mice (intravenous administration). Format: in vivo. As to conditions: male mice, 50 mg/kg single intravenous dose. On the procedure: The compound of Example 3 was dissolved in a small amount of 0.1 mol/L hydrochloric acid, and the solution was diluted with a sterile physiological saline solution to obtain a 5 mg/mL solution. The Test Compound solution was administered intravenously to male mice (4 week-old, 2 mice/group) at 10 mL/kg (50 mg/kg body weight) and the mice were observed until day 2 after administration.

For a further data set, the target named is T1, human CYP3A4 (Homo sapiens, UniProt P08684).
T1 construct: host or cells: insect cells (microsomes)
T1 sequence (P08684 whole entry): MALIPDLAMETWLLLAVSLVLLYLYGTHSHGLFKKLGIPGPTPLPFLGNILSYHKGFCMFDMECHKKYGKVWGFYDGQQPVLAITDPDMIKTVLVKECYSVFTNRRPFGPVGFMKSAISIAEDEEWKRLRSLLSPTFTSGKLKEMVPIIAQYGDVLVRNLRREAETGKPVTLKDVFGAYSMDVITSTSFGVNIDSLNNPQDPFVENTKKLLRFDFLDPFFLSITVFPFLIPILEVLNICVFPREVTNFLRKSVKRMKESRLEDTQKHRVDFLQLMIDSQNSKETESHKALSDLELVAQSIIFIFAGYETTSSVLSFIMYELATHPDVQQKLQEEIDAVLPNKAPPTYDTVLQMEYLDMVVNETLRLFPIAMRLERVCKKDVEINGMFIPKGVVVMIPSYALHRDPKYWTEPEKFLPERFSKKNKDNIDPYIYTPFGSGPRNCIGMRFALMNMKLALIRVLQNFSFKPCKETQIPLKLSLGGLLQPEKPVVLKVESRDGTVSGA
Briefly: Inhibitory effect on CYP3A4. Format: in vitro ADME. As to conditions: microsome from insect cells expressing human CYP3A4, dibenzylfluorescein, 37° C. 15 min, 72 to 0.0329 μmol/L. On the procedure:
Inhibitory effects of the compound of Example 3 and Comparative Compound 1 on human hepatic drug-metabolizing enzyme CYP3A4 were compared. A microsome prepared from insect cells expressing human CYP3A4 was used. Dibenzylfluorescein was used as a substrate. The reaction was conducted in a phosphate buffer solution (100 mmol/L, pH 7.4) including final concentrations of 2.5 nmol/L for the enzyme, 1.0 μmol/L for the substrate, 1.55 mmol/L for nicotinamide adenine dinucleotide phosphate oxidized form (NADP+), 3.3 mmol/L for glucose-6-phosphate, 3.3 mmol/L for magnesium chloride and 0.4 Units/mL for glucose-6-phosphate dehydrogenase (G6PDH). The concentrations of the respective compounds in the reaction solution were prepared in a 3-fold dilution series with a final concentration range of 72 to 0.0329 μmol/L. The reaction solutions were incubated at 37° C. for 15 min. Then the reaction was terminated by a 2 mol/L sodium hydroxide aqueous solution, and the solution was further incubated at 37° C. for 2 hours. The enzyme activity was determined by measuring fluorescence with wavelength of 535 nm using excitation wavelength of 485 nm. The inhibitory effect was expressed as IC50. Clotrimazole was used as a positive control.

Here are results for one compound from patent US8536343B2, “Arylamidine derivative, salt thereof and antifungal agent containing those” (Toyama Chemical Co., Ltd., priority 2005, dated 2013).

As usually defined, the IC50 is the concentration needed to halve the response being measured. For the compound `CCCCOC(=O)N=C(N)c1ccc(OCCCC2CCN(CCCOc3ccc(C(N)=NC(=O)OCCCC)cc3)CC2)cc1` [Example 3, 4-{3-[4-(3-{4-[amino(butoxycarbonylimino)methyl]phenoxy}propyl)-1-piperidinyl]propoxy}-N′-(butoxycarbonyl)benzamidine], the mice survived is given as 80% in data set [1], 80% in data set [2] and 60% in data set [3]. Also, the “survival until day 2 after administration” value in data set [4] and in data set [5] was “all mice survived” each time. The IC50 against human CYP3A4 was 45.4 µM.
